Source: patent US20040076968A1, “Method for detecting pre-disposition to hepatotoxicity” (priority 2000, published 2004)

Tests used:
UGT1A6 gene = experiment: Association of UGT1A6 polymorphisms with liver function abnormality in tolcapone-treated patients (case-control genotyping); format: in vivo, human
Method: Disease severity had already been controlled for by the original study inclusion criteria.
In the KTC format, the generation of double-stranded amplification product is monitored using a DNA intercalating dye and a thermal cycler which has a fluorescence-detecting CCD camera attached (PE-Bipsystems GeneAmp 5700 Sequence Detection System). Fluorescence in each well of the PCR amplification plate is measured at each cycle of annealing and denaturation. The cycle at which the relative fluorescence reached a threshold of 0.5 using the SDS sofiware from PE-Biosystems was defined as the Ct.
The amplification reactions were designed to be allele-specific, so that the amplification reaction was positive if the polymorphism was present and the amplification reaction was negative if the polymorphism was absent. For each bi-allelic polymorphism, one well of the amplification plate was set up to be specific for allele 1 and a second well was set up to be specific for allele 2. For each polymorphism to be detected, three primers were designed—two allele-specific primers and one common primer (Table 3). Reactions for allele 1 contained allele 1-specific primer and the common primer and reactions for allele 2 contained allele 2-specific primer and the common primer.
The Ct of each amplification reaction was determined and the difference between the Ct for allele 1 and allele 2 (delta Ct) was, used as the assay result. Samples with delta Cts between −3.0 and 3.0 were considered heterozygous (A1/A2). Samples with delta Cts below −3.0 were considered homozygous for A1 (A1/A1); samples with delta Cts above 3.0 were considered homozygous for A2 (A2/A2).
For all other single nucleotide polymorphisms (SNPs) discovery and genotyping was done by double-stranded DNA sequencing using an ABI capillary sequencer and Big Dye chemistry (ABI). The primers used to amplify all exons are shown below and were also used as sequencing primers. Publicly available genomic sequences were used as references for primer design. All polymorphisms were targeted with these pairs-of-primer sets:
The patient samples were divided into two groups.
For each genotype, the following analyses were performed:
a) Analysis of the entire genotype: patients were classified according to the following three categories: homozygous 1/1 (two copies of allele 1 and no copies of allele 2), heterozygous 1/2 (one copy of allele 1 and one copy of allele 2) or homozygous 2/2 (no copies of allele 1 and two copies of allele 2). Analysis was conducted to assess whether there were differences in the proportion of case patients in each of these groups, compared with the proportion of control patients. The Cochran-Maentel-Hanszel (CMH) test was applied to the data presented in a 2-by-3 table (the two columns indicating presence or absence of liver function abnormality and the three rows indicating the three categories of the genotype).
b) Analysis of alleles: the presence of allele 1 or 2 in case patients was compared to the presence of the respective allele in the control patients.
c) Analysis of allele counts: this analysis was conducted to compare the distribution of the alleles in patients with liver function abnormality to that of patients without abnormality. The total number of copies of allele 1 among patients with liver function abnormality was compared with the total number of copies of allele 2 among these case patients.

[1] = human subjects; cited from earlier work

Cc1ccc(C(=O)c2cc(O)c(O)c([N+](=O)[O-])c2)cc1 [tolcapone]
n (%) of allele copies (UGT1A6 gene; UGT1A6_528 A/G, Count Allele A, Liver Function Abnormality Present): 148 (56.9%)
n (%) of allele copies (UGT1A6 gene; UGT1A6_528 A/G, Count Allele G, Liver Function Abnormality Absent): 158 (29.8%)
n (%) of allele copies (UGT1A6 gene; UGT1A6_528 A/G, Count Allele G, Liver Function Abnormality Present): 112 (43.1%)
n (%) of patients (UGT1A6 gene; UGT1A6_528 A/G, Genotype Heterozygous A/G, Liver Function Abnormality Absent): 114 (43.0%)
n (%) of patients (UGT1A6 gene; UGT1A6_528 A/G, Genotype Heterozygous A/G, Liver Function Abnormality Present): 60 (46.2%)
n (%) of patients (UGT1A6 gene; UGT1A6_528 A/G, Genotype Homozygous A/A, Liver Function Abnormality Absent): 129 (48.7%)
n (%) of patients (UGT1A6 gene; UGT1A6_528 A/G, Genotype Homozygous A/A, Liver Function Abnormality Present): 44 (33.8%)
n (%) of patients (UGT1A6 gene; UGT1A6_528 A/G, Genotype Homozygous G/G, Liver Function Abnormality Absent): 22 (8.3%)
n (%) of patients (UGT1A6 gene; UGT1A6_528 A/G, Genotype Homozygous G/G, Liver Function Abnormality Present): 26 (20.0%)
n (%) of patients (UGT1A6 gene; UGT1A6_754 Thr181Ala, Allele Ala Absent, Liver Function Abnormality Absent): 144 (52.6%)
n (%) of patients (UGT1A6 gene; UGT1A6_754 Thr181Ala, Allele Ala Absent, Liver Function Abnormality Present): 51 (37.8%)
n (%) of patients (UGT1A6 gene; UGT1A6_754 Thr181Ala, Allele Ala Present, Liver Function Abnormality Absent): 130 (47.4%)
n (%) of patients (UGT1A6 gene; UGT1A6_754 Thr181Ala, Allele Ala Present, Liver Function Abnormality Present): 84 (62.2%)
n (%) of patients (UGT1A6 gene; UGT1A6_754 Thr181Ala, Allele Thr Absent, Liver Function Abnormality Absent): 22 (8.0%)
n (%) of patients (UGT1A6 gene; UGT1A6_754 Thr181Ala, Allele Thr Absent, Liver Function Abnormality Present): 25 (18.5%)
n (%) of patients (UGT1A6 gene; UGT1A6_754 Thr181Ala, Allele Thr Present, Liver Function Abnormality Absent): 252 (92.0%)
n (%) of patients (UGT1A6 gene; UGT1A6_754 Thr181Ala, Allele Thr Present, Liver Function Abnormality Present): 110 (81.5%)
n (%) of allele copies (UGT1A6 gene; UGT1A6_754 Thr181Ala, Count Allele Ala, Liver Function Abnormality Absent): 152 (27.7%)
n (%) of allele copies (UGT1A6 gene; UGT1A6_754 Thr181Ala, Count Allele Ala, Liver Function Abnormality Present): 109 (40.4%)
n (%) of allele copies (UGT1A6 gene; UGT1A6_754 Thr181Ala, Count Allele Thr, Liver Function Abnormality Absent): 396 (72.3%)
n (%) of allele copies (UGT1A6 gene; UGT1A6_754 Thr181Ala, Count Allele Thr, Liver Function Abnormality Present): 161 (59.6%)
n (%) of patients (UGT1A6 gene; UGT1A6_754 Thr181Ala, Genotype Heterozygous Thr/Ala, Liver Function Abnormality Absent): 108 (39.4%)
n (%) of patients (UGT1A6 gene; UGT1A6_754 Thr181Ala, Genotype Heterozygous Thr/Ala, Liver Function Abnormality Present): 59 (43.7%)
n (%) of patients (UGT1A6 gene; UGT1A6_754 Thr181Ala, Genotype Homozygous Ala/Ala, Liver Function Abnormality Absent): 22 (8.8%)
n (%) of patients (UGT1A6 gene; UGT1A6_754 Thr181Ala, Genotype Homozygous Ala/Ala, Liver Function Abnormality Present): 25 (18.5%)
n (%) of patients (UGT1A6 gene; UGT1A6_754 Thr181Ala, Genotype Homozygous Thr/Thr, Liver Function Abnormality Absent): 144 (52.6%)
n (%) of patients (UGT1A6 gene; UGT1A6_754 Thr181Ala, Genotype Homozygous Thr/Thr, Liver Function Abnormality Present): 51 (37.8%)
n (%) of patients (UGT1A6 gene; UGT1A6_765 Arg184Ser, Allele Arg Absent, Liver Function Abnormality Absent): 24 (8.8%)
n (%) of patients (UGT1A6 gene; UGT1A6_765 Arg184Ser, Allele Arg Absent, Liver Function Abnormality Present): 26 (19.3%)
n (%) of patients (UGT1A6 gene; UGT1A6_765 Arg184Ser, Allele Arg Present, Liver Function Abnormality Absent): 250 (91.2%)
n (%) of patients (UGT1A6 gene; UGT1A6_765 Arg184Ser, Allele Arg Present, Liver Function Abnormality Present): 109 (80.7%)
n (%) of patients (UGT1A6 gene; UGT1A6_765 Arg184Ser, Allele Ser Absent, Liver Function Abnormality Absent): 128 (46.7%)
n (%) of patients (UGT1A6 gene; UGT1A6_765 Arg184Ser, Allele Ser Absent, Liver Function Abnormality Present): 45 (33.3%)
n (%) of patients (UGT1A6 gene; UGT1A6_765 Arg184Ser, Allele Ser Present, Liver Function Abnormality Absent): 146 (53.3%)
n (%) of patients (UGT1A6 gene; UGT1A6_765 Arg184Ser, Allele Ser Present, Liver Function Abnormality Present): 90 (66.7%)
n (%) of allele copies (UGT1A6 gene; UGT1A6_765 Arg184Ser, Count Allele Arg, Liver Function Abnormality Absent): 378 (69.0%)
n (%) of allele copies (UGT1A6 gene; UGT1A6_765 Arg184Ser, Count Allele Arg, Liver Function Abnormality Present): 154 (57.0%)
n (%) of allele copies (UGT1A6 gene; UGT1A6_765 Arg184Ser, Count Allele Ser, Liver Function Abnormality Absent): 170 (31.0%)
n (%) of allele copies (UGT1A6 gene; UGT1A6_765 Arg184Ser, Count Allele Ser, Liver Function Abnormality Present): 116 (43.0%)
n (%) of patients (UGT1A6 gene; UGT1A6_765 Arg184Ser, Genotype Heterozygous Arg/Ser, Liver Function Abnormality Absent): 122 (44.5%)
n (%) of patients (UGT1A6 gene; UGT1A6_765 Arg184Ser, Genotype Heterozygous Arg/Ser, Liver Function Abnormality Present): 64 (47.4%)
n (%) of patients (UGT1A6 gene; UGT1A6_765 Arg184Ser, Genotype Homozygous Arg/Arg, Liver Function Abnormality Absent): 128 (46.7%)
n (%) of patients (UGT1A6 gene; UGT1A6_765 Arg184Ser, Genotype Homozygous Arg/Arg, Liver Function Abnormality Present): 45 (33.3%)
n (%) of patients (UGT1A6 gene; UGT1A6_765 Arg184Ser, Genotype Homozygous Ser/Ser, Liver Function Abnormality Absent): 24 (8.8%)
n (%) of patients (UGT1A6 gene; UGT1A6_765 Arg184Ser, Genotype Homozygous Ser/Ser, Liver Function Abnormality Present): 26 (19.3%)
main pathway of elimination from the body [1]: glucuronidation
